Laboratory results from ChEMBL document CHEMBL1201862, “PubChem BioAssay data set” (2004).
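Exposure lasted 48 hours, with cells grown in 96-well plates and compounds tested at five concentrations. GI50 marks 50% less growth.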 Activity calls are given as the source filed them. Rule as the data show it: active = GI50 up to about 1.1 µM and inactive = higher.

How the values were obtained:
Assay in all cases: growth of human tumour cells (NCI), 48 h
786-0 = test system: 786-0
A498 = test system: A498
A549 = test system: A549
ACHN = test system: ACHN
BT-549 = test system: BT-549
CAKI-1 = test system: CAKI-1
COLO 205 = test system: COLO 205
DU-145 = test system: DU-145
EKVX = test system: EKVX
HCT-116 = test system: HCT-116
HCT-15 = test system: HCT-15
HL-60 = test system: HL-60
HOP-62 = test system: HOP-62
HOP-92 = test system: HOP-92
HT-29 = test system: HT-29
Hs-578T = test system: Hs-578T
IGROV-1 = test system: IGROV-1
K562 = test system: K562
KM12 = test system: KM12
LOX IMVI = test system: LOX IMVI
M14 = test system: M14
MCF7 = test system: MCF7
MDA-MB-231 = test system: MDA-MB-231
MDA-MB-435 = test system: MDA-MB-435
MDA-N = test system: MDA-N
MOLT-4 = test system: MOLT-4
Malme-3M = test system: Malme-3M
NCI-H226 = test system: NCI-H226
NCI-H23 = test system: NCI-H23
NCI-H460 = test system: NCI-H460
NCI-H522 = test system: NCI-H522
NCI/ADR-RES = test system: NCI/ADR-RES
OVCAR-3 = test system: OVCAR-3
OVCAR-4 = test system: OVCAR-4
OVCAR-5 = test system: OVCAR-5
OVCAR-8 = test system: OVCAR-8
PC-3 = test system: PC-3
RPMI-8226 = test system: RPMI-8226
RXF 393 = test system: RXF 393
SF-268 = test system: SF-268
SF-295 = test system: SF-295
SF-539 = test system: SF-539
SK-MEL-28 = test system: SK-MEL-28
SK-MEL-2 = test system: SK-MEL-2
SK-MEL-5 = test system: SK-MEL-5
SK-OV-3 = test system: SK-OV-3
SN12C = test system: SN12C
SNB-19 = test system: SNB-19
SNB-75 = test system: SNB-75
SR = test system: SR
SW-620 = test system: SW-620
T47D = test system: T47D
TK-10 = test system: TK-10
U-251 = test system: U-251
UACC-257 = test system: UACC-257
UACC-62 = test system: UACC-62
UO-31 = test system: UO-31
CCRF-CEM = test system: CCRF-CEM
HCC 2998 = test system: HCC 2998

CC(C)NC1(C(N)=O)CCN(Cc2ccccc2)CC1 was tested, and the GI50 (786-0) was > 100 µM (inactive), the GI50 (A498) was > 100 µM (inactive) and the GI50 (A549) was > 100 µM (inactive). The GI50 (ACHN) was > 100 µM (inactive), the GI50 (BT-549) was > 100 µM (inactive) and the GI50 (CAKI-1) was > 100 µM (inactive). The GI50 (COLO 205) was > 100 µM (inactive), the GI50 (DU-145) was > 100 µM (inactive) and the GI50 (EKVX) was > 100 µM (inactive). For the same molecule, the GI50 (HCT-116) was > 100 µM (inactive), the GI50 (HCT-15) was greater than 100 µM and the GI50 (HL-60) was > 100 µM (inactive). The GI50 (HOP-62) was > 100 µM (inactive), the GI50 (HOP-92) was > 100 µM (inactive) and the GI50 (HT-29) was > 100 µM (inactive). The GI50 (Hs-578T) was > 100 µM (inactive), the GI50 (IGROV-1) was > 100 µM (inactive) and the GI50 (K562) was > 100 µM (inactive). For the same molecule, the GI50 (KM12) was > 100 µM (inactive), the GI50 (LOX IMVI) was > 100 µM (inactive) and the GI50 (M14) was > 100 µM (inactive). For the same molecule, the GI50 (MCF7) was > 100 µM (inactive), the GI50 (MDA-MB-231) was > 100 µM (inactive) and the GI50 (MDA-MB-435) was > 100 µM (inactive). For the same molecule, the GI50 (MDA-N) was > 100 µM (inactive), the GI50 (MOLT-4) was > 100 µM (inactive) and the GI50 (Malme-3M) was > 100 µM (inactive). For the same molecule, the GI50 (NCI-H226) was > 100 µM (inactive), the GI50 (NCI-H23) was > 100 µM (inactive) and the GI50 (NCI-H460) was > 100 µM (inactive). The GI50 (NCI-H522) was > 100 µM (inactive), the GI50 (NCI/ADR-RES) was > 100 µM (inactive) and the GI50 (OVCAR-3) was > 100 µM (inactive). The GI50 (OVCAR-4) was > 100 µM (inactive), the GI50 (OVCAR-5) was > 100 µM (inactive) and the GI50 (OVCAR-8) was > 100 µM (inactive). The GI50 (PC-3) was > 100 µM (inactive), the GI50 (RPMI-8226) was > 100 µM (inactive) and the GI50 (RXF 393) was > 100 µM (inactive). The GI50 (SF-268) was > 100 µM (inactive), the GI50 (SF-295) was > 100 µM (inactive) and the GI50 (SF-539) was > 100 µM (inactive). For the same molecule, the GI50 (SK-MEL-28) was > 100 µM (inactive), the GI50 (SK-MEL-2) was > 100 µM (inactive) and the GI50 (SK-MEL-5) was > 100 µM (inactive). For the same molecule, the GI50 (SK-OV-3) was > 100 µM (inactive), the GI50 (SN12C) was > 100 µM (inactive) and the GI50 (SNB-19) was > 100 µM (inactive). For the same molecule, the GI50 (SNB-75) was > 100 µM (inactive), the GI50 (SR) was > 100 µM (inactive) and the GI50 (SW-620) was > 100 µM (inactive). The GI50 (T47D) was > 100 µM (inactive), the GI50 (TK-10) was > 100 µM (inactive) and the GI50 (U-251) was > 100 µM (inactive). The GI50 (UACC-257) was > 100 µM (inactive), the GI50 (UACC-62) was > 100 µM (inactive) and the GI50 (UO-31) was > 100 µM (inactive).

In the case of COC1=C(OC)C(=O)C(Cc2c(Cl)nc3sc(C)cn23)=C(C)C1=O, the GI50 (786-0) is reported as 19.9 µM (inactive), the GI50 (A498) is reported as 22.9 µM (inactive) and the GI50 (A549) is reported as 17.2 µM (inactive). For the same molecule, the GI50 (ACHN) was 17.1 µM (inactive), the GI50 (BT-549) was 18 µM (inactive) and the GI50 (CAKI-1) was 24.5 µM (inactive). The GI50 (CCRF-CEM) was 3.02 µM (inactive), the GI50 (COLO 205) was 19.6 µM (inactive) and the GI50 (DU-145) was 22.1 µM (inactive). The GI50 (EKVX) was 17.3 µM (inactive), the GI50 (HCC 2998) was 17.2 µM (inactive) and the GI50 (HCT-116) was 23 µM (inactive). The GI50 (HCT-15) was 24.9 µM, the GI50 (HOP-62) was 19.3 µM (inactive) and the GI50 (HT-29) was 17.9 µM (inactive). For the same molecule, the GI50 (Hs-578T) was 19.7 µM (inactive), the GI50 (IGROV-1) was 17.8 µM (inactive) and the GI50 (K562) was 11.9 µM (inactive). For the same molecule, the GI50 (KM12) was 13.3 µM (inactive), the GI50 (LOX IMVI) was 11.7 µM (inactive) and the GI50 (M14) was 17.1 µM (inactive). The GI50 (MCF7) was 19.5 µM (inactive), the GI50 (MDA-MB-231) was 12.2 µM (inactive) and the GI50 (MDA-MB-435) was 18.2 µM (inactive). For the same molecule, the GI50 (MDA-N) was 15.8 µM (inactive), the GI50 (MOLT-4) was 1.29 µM (inactive) and the GI50 (Malme-3M) was 12.2 µM (inactive). For the same molecule, the GI50 (NCI-H23) was 13.7 µM (inactive), the GI50 (NCI-H460) was 16.7 µM (inactive) and the GI50 (NCI-H522) was 13.4 µM (inactive). For the same molecule, the GI50 (NCI/ADR-RES) was 14.6 µM (inactive), the GI50 (OVCAR-3) was 12.2 µM (inactive) and the GI50 (OVCAR-4) was 7.5 µM (inactive). For the same molecule, the GI50 (OVCAR-5) was 18.2 µM (inactive), the GI50 (OVCAR-8) was 19.1 µM (inactive) and the GI50 (PC-3) was 16 µM (inactive). For the same molecule, the GI50 (RPMI-8226) was 11.2 µM (inactive), the GI50 (RXF 393) was 20.3 µM (inactive) and the GI50 (SF-268) was 16.6 µM (inactive). For the same molecule, the GI50 (SF-295) was 16.6 µM (inactive), the GI50 (SF-539) was 19 µM (inactive) and the GI50 (SK-MEL-28) was 17.9 µM (inactive). For the same molecule, the GI50 (SK-MEL-2) was 22.3 µM (inactive), the GI50 (SK-MEL-5) was 11.2 µM (inactive) and the GI50 (SK-OV-3) was 17.5 µM (inactive). For the same molecule, the GI50 (SN12C) was 15.9 µM (inactive), the GI50 (SNB-19) was 17.9 µM (inactive) and the GI50 (SR) was 16.7 µM (inactive). The GI50 (SW-620) was 21.3 µM (inactive), the GI50 (T47D) was 23.9 µM (inactive) and the GI50 (TK-10) was 16.4 µM (inactive). The GI50 (U-251) was 17.9 µM (inactive), the GI50 (UACC-257) was 10.4 µM (inactive) and the GI50 (UACC-62) was 11.6 µM (inactive). For the same molecule, the GI50 (UO-31) was 17.1 µM (inactive).
